Measurements from publication PMC7763995 (Molecules, 2020).
Like-named read-outs stand apart in the source and are kept apart here.

How the values were obtained:
mouse brain homogenate [1] = assay: TBARS assay, spontaneous lipid peroxidation in mouse brain homogenate; conditions: read-out: Inhibition of Spontaneous Lipid Peroxidation in Mice Brain Homogenate, TBARS Assay, IC50
Method: (§1) The work was carried out in accordance with the EU Directive 2010/63/EU. Hybrid BDF1 mice (about 6 months old) were sacrificed by decapitation. Each brain was rapidly excised, frozen in liquid nitrogen, and stored at −80°C until use. The brains were thawed and homogenized using a Wisd WiseTis HG-15D homogenizer for 2 min in a buffer (0.01 M PBS, pH 7.4 or 0.1 M Tris-HCl, pH 7.4). Protein concentrations were determined by the Lowry method.
The procedure was performed in accordance with the method of Ohkawa et al. with minor modifications. Briefly, mouse brain homogenate (protein concentration 1 mg/mL) in PBS (0.1 M, pH 7.4) was incubated for 30 min at 37°C with tested conjugates, and the reaction was terminated by addition of 0.4 mL of 17% (w/v) trichloroacetic acid (Sigma-Aldrich). Following centrifugation for 20 min at 1300× g, 0.5 mL of 0.8% (w/v) of TBA (Sigma-Aldrich) was added to 1 mL of supernatant, heated for 30 min at 95°C and then cooled to RT. The optical density of the TBARS, which corresponds to the produced MDA, was measured at 532 nm against a blank using an Agilent Cary 60 UV-Vis spectrophotometer (Agilent, Santa Clara, CA, USA). The MDA concentration was calculated using an extinction coefficient of 1.56 × 10^5 M^−1cm^−1. Trolox and BHT were used as reference antioxidants. Compounds were dissolved in DMSO (Sigma-Aldrich) and tested in a concentration range 0.01–100 μM. All compounds were examined at least in triplicate.

mouse brain homogenate [2] = assay: Luminol chemiluminescence assay in mouse brain homogenate (TBHP-initiated); conditions: compound concentration 20 µM; mice brain homogenate
Method: as §1
Luminol-dependent chemiluminescence produced by mouse brain homogenates was measured using a 1250 Luminometer (LKB Wallac, Turku, Finland) according to the assay by Di Meo et al. with minor modifications. The reaction mixture consisted of mouse brain homogenate (protein concentration 0.1 mg/mL) in 0.1 M Tris-HCl (Sigma-Aldrich), pH 7.4, luminol (Sigma-Aldrich) (0.05 mM), TBHP (Sigma-Aldrich) (0.073 M) and tested compounds at a concentration of 20 μM. This was placed in a light-proof luminometer chamber and the background reading was recorded. All measurements were carried out at 37°C. The gain control was set to give a reading of 10 mV using a built-in standard. The free radical content in mouse brain homogenate was evaluated by the change in the light sum (the area under the kinetic curve of luminescence intensity for the entire luminescence time). All compounds were examined at least in triplicate. The effects of tested compounds were measured as the percentage decrease in the light sum relative to the control (a sample with no compound added).

[3] = FRAP (ferric reducing antioxidant power) assay; conditions: 20 µM, 1 h incubation; ratio of concentrations of Trolox and test compound with same effect
Method: The FRAP (ferric reducing antioxidant power) assay proposed by Benzie and Strain [80, 81] was modified to be performed in 96-well microplates. The FRAP reagent contained 2.5 mL of 10 mM TPTZ (2,4,6-tris(2-pyridyl)-s-triazine (Sigma-Aldrich) solution in 40 mM HCl, 2.5 mL of 20 mM FeCl3 (Sigma-Aldrich) in distilled water and 25 mL of 0.3 M acetate buffer (pH 3.6). In 96-well microplates, 10 µL aliquots of the substance under investigation (compounds 7, 8 or reference substance) dissolved in DMSO (0.5 mM) were placed in quadruplicate. The FRAP reagent (240 µL) freshly prepared and warmed to 37°C was added to three of these samples, while the same volume of acetate buffer was added to the fourth one (blank). Consequently, the concentration of the substance in a plate was 20 µM. The absorbance at 600 nm was monitored spectrophotometrically with a FLUOStar OPTIMA microplate reader at 37°C for an hour with an interval of 5–10 min. Data in Table 2 are given for 1 h of incubation of compounds with FRAP reagent. The absorbances of the blanks and those of the mixture of 240 µL FRAP reagent plus 10 µL DMSO were subtracted from the absorbances of the samples at each time interval to calculate the absorbance change. Standard antioxidants Trolox and BHT dissolved in DMSO and analyzed as described above were used as reference compounds. A calibration curve with linear formula y = 0.03x (R^2 = 0.998, p < 0.0001) was obtained for Trolox solution in DMSO in the range 2.5–100 µM and the results were expressed as FRAP units (the values calculated as the ratio of the concentrations of Trolox and the test compound resulting in the same effect.)

[4] = ABTS radical cation scavenging activity assay; conditions: for IC50 / ABTS^•+-Scavenging Activity, TEAC: 1 h incubation; for ABTS^•+-Scavenging Activity, TEAC: ratio of slopes test compound/Trolox
Method: Radical scavenging activity of the compounds was assessed using the ABTS radical decolorization assay with some modifications. ABTS was purchased from Tokyo Chemical Industry Co., Ltd. (Tokyo, Japan), potassium persulfate (dipotassium peroxodisulfate), Trolox (6-hydroxy-2,5,7,8-tetramethychroman-2-carboxylic acid), and HPLC-grade ethanol were obtained from Sigma-Aldrich. Aqueous solutions were prepared using deionized water.
The solution of cation radical ABTS^•+ was produced by incubation of ABTS with potassium persulfate in deionized water for 12–16 h at room temperature in the dark. Radical scavenging capacity of the compounds was analyzed by mixing 10 μL of compound with 240 μL of ABTS^•+ working solution in ethanol (100 μM final concentration). The reaction was monitored for an hour with an interval of 5–10 min. Data are given for 1 h of incubation of compounds with ABTS^•+. The reduction in absorbance was measured spectrophotometrically at 734 nm using a xMark microplate UV/VIS microplate spectrophotometer (Bio-Rad, Hercules, CA, USA).
Ethanol blanks were run in each assay. Values were obtained from three replicates of each sample and three independent experiments. Standard antioxidants Trolox and BHT were used as reference compounds.
Antioxidant capacity as Trolox equivalent (TEAC) values was determined as the ratio between the slopes obtained from the linear correlation of the ABTS radical absorbance with the concentrations of tested compounds and Trolox. […] The compounds were tested in the concentration range of 0.1–100 µM.

Equine serum BChE = target: T1, Equine serum BChE (Equus caballus, UniProt P81908); assay: biochemical; conditions: for Selectivity for BChE: IC50 AChE / IC50 BChE
T1 construct: equine serum BChE; purchased Sigma-Aldrich; host or cells: equine serum
T1 sequence (P81908 whole entry): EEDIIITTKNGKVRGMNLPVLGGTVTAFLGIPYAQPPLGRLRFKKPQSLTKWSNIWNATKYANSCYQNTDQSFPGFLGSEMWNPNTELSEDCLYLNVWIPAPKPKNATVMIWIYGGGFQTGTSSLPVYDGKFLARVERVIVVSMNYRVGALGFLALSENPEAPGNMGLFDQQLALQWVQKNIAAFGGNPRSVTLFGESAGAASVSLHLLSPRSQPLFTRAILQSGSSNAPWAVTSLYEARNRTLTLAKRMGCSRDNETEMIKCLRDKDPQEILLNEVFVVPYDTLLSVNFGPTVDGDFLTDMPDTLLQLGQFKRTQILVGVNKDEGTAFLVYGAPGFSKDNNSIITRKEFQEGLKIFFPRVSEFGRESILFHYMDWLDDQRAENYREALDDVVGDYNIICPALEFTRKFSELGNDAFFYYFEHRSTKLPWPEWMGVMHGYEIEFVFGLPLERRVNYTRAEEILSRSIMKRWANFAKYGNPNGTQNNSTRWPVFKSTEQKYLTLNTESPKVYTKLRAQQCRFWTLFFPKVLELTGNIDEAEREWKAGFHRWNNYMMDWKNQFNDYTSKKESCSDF
Method: (§2) Measurements were performed with a FLUOStar Optima microplate reader (BMG Labtech, Ortenberg, Germany). Compounds were dissolved in DMSO, the incubation mixture contained 2% solvent.

Human erythrocyte AChE = target: T2, Human erythrocyte AChE (Homo sapiens, UniProt P22303); assay: biochemical
T2 construct: AChE from human erythrocytes was used; purchased Sigma-Aldrich; host or cells: human erythrocytes
T2 sequence (P22303 32-617 isoform P22303-2 limits assumed): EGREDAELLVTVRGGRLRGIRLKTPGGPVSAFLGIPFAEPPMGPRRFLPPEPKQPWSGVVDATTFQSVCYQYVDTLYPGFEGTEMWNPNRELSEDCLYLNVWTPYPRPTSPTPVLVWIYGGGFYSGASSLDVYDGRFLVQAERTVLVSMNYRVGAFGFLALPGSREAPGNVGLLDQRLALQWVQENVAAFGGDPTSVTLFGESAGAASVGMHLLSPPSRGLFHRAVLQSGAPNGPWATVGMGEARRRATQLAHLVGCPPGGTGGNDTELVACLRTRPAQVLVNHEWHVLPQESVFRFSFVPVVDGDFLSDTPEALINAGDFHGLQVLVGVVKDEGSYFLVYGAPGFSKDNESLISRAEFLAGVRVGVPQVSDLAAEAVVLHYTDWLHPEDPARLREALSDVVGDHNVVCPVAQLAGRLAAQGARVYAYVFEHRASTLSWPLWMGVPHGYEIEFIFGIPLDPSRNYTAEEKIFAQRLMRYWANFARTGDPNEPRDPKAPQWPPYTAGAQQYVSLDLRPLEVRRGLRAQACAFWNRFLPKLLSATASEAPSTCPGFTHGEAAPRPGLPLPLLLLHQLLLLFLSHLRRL
Method: as §2

EeAChE PAS = target: T3, EeAChE PAS (Electrophorus electricus, UniProt O42275); assay type: binding; conditions: compound concentration 20 µM
T3 construct: Electric eel AChE (EeAChE, type VI-S, lyophilized powder); purchased Sigma-Aldrich type VI-S; host or cells: electric eel
T3 sequence (O42275 24-633): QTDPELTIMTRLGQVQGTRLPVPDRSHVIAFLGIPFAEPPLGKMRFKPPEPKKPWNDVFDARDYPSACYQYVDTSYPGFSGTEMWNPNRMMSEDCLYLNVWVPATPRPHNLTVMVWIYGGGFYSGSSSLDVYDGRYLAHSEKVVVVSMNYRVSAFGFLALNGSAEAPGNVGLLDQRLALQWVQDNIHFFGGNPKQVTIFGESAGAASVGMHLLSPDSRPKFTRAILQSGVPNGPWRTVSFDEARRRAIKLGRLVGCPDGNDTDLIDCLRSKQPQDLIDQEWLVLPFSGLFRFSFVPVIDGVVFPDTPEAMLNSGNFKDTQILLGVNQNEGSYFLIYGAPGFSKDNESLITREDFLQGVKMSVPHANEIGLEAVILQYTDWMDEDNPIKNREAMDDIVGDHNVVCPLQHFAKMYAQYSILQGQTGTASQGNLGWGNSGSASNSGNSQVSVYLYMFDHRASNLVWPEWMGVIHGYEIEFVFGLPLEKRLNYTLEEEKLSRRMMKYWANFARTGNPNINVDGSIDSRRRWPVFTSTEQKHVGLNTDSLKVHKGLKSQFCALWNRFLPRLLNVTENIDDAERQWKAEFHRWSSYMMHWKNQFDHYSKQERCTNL
Method: Electric eel AChE (EeAChE, type VI-S, lyophilized powder, Sigma-Aldrich, Saint Louis, MO, USA) was used owing to its high degree of purification, high activity, and lower cost compared to human AChE.
The blank contained propidium iodide of the same concentration in 1 mM Tris-HCl buffer pH 8.0. The measurements were carried out in triplicate on a FLUOStar Optima microplate reader, and the results were calculated by formula (1):% Displacement = 100 − (IFAChE+ Propidium + inhibitor / IFAChE + Propidium) × 100(1) where IFAChE + Propidium is the fluorescence intensity of the propidium associated with AChE in the absence of the test compound (taken as 100%), and IFAChE + Propidium + inhibitor is the fluorescence intensity of the propidium associated with AChE in the presence of the test compound.

Porcine liver CES = assay: In vitro CES inhibition, 4-NPA substrate; assay type: biochemical; conditions: compound concentration 20 µM; n.a. = not active
Method: as §2

AChE = test system: AChE; parameters: method as in PMID 15658850; conditions: read-out: anti-AChE activity, IC50; cited from earlier work
[5] = test system: AChE-induced Aβ aggregation; parameters: method as in PMID 15658850; conditions: cited from earlier work
[6] = mean ± SEM, n = 3, n.a. = not active, read-out: Equine Serum BChE, IC50
[7] = mean ± SEM, n = 3, n.a. = not active, read-out: Human Erythrocyte AChE, IC50

SMILES	IC50 (mouse brain homogenate [1]) [µM]	Radical Scavenging Capacity in Luminol Chemiluminescence Assay, Luminescence Inhibition, % (mouse brain homogenate [2]) [%]	Ferric Reducing Antioxidant Power, FRAP Units [3]	IC50 [4] [µM]	ABTS^•+-Scavenging Activity, TEAC [4]	IC50 (Equine serum BChE) [µM]	Selectivity for BChE (Equine serum BChE)	IC50 (Human erythrocyte AChE) [µM]	Displacement of Propidium from EeAChE PAS (%) (EeAChE PAS)	Porcine Liver CES, (%) inhibition (Porcine liver CES)	Time of maximum binding of the ABTS radical [4] [min]	IC50 (AChE) [µM]	IC50 [5] [µM]	IC50 (Equine serum BChE; [6]) [µM]	IC50 (Human erythrocyte AChE; [7]) [µM]
Cc1c(C)c2c(c(C)c1O)CCC(C)(C(=O)O)O2 (stereo not drawn) [Trolox, 6-hydroxy-2,5,7,8-tetramethychroman-2-carboxylic acid, reference compound]	91.8 ± 0.3	88.0 ± 1.0	1.0	20.1 ± 1.2	1.0	–	–	–	–	–	–	–	–	–	–
CC(C)(C)c1cc(CNCCNc2c3c(nc4ccccc24)CCC3)cc(C(C)(C)C)c1O [Compound 8a, 2,6-Di-tert-butyl-4-{[2-(2,3-dihydro-1H-cyclopenta[b]quinolin-9-ylamino)-ethylamino]-methyl}-phenol]	6.23 ± 0.33	95.0 ± 0.1	0.77 ± 0.02	12.7 ± 1.1	1.39 ± 0.05	0.652 ± 0.005	5.4	3.5 ± 0.33	16.4 ± 1.4	19.6 ± 1.3%	5	–	–	–	–
CC(C)(C)c1cc(CNCCNc2c3c(nc4ccccc24)CCCCC3)cc(C(C)(C)C)c1O [Compound 8c, 2,6-Di-tert-butyl-4-{[2-(7,8,9,10-tetrahydro-6H-cyclohepta[b]quinolin-11-ylamino)-ethylamino]-methyl}-phenol]	9.38 ± 0.12	91.0 ± 0.6	0.80 ± 0.06	14.1 ± 0.8	1.35 ± 0.04	0.084 ± 0.008	–	1.9 ± 0.16	13.6 ± 1.2	26.0 ± 1.9%	5	–	–	–	–
O=C(CCCCC1CCSS1)NCCCNc1c2c(nc3cc(Cl)ccc13)CCCC2 (stereo not drawn) [lipocrine]	–	–	–	–	–	–	–	–	–	–	–	0.000253	45	–	–
CC(C)(C)c1cc(C=NCCNc2c3c(nc4ccccc24)CCCCCC3)cc(C(C)(C)C)c1O [Compound 7d, 2,6-Di-tert-butyl-4-{[2-(6,7,8,9,10,11-hexahydro-cycloocta[b]quinolin-12-ylamino)-ethylimino]-methyl}-phenol]	14.8 ± 1.3	95.0 ± 0.2	0.57 ± 0.02	17.8 ± 1.7	1.12 ± 0.05	–	10.5	–	17.1 ± 1.8	20.4 ± 1.6%	–	–	–	4.27 ± 0.26	45 ± 5.7
CC(C)(C)c1cc(C=NCCNc2c3c(nc4ccccc24)CCC3)cc(C(C)(C)C)c1O [Compound 7a, 2,6-Di-tert-butyl-4-{[2-(2,3-dihydro-1H-cyclopenta[b]quinolin-9-ylamino)-ethylimino]-methyl}-phenol]	19.6 ± 0.8	94.0 ± 0.2	0.51 ± 0.03	22.3 ± 1.5	–	–	2.5	–	18.1 ± 1.6	26.1 ± 0.7%	–	–	–	1.92 ± 0.11	4.86 ± 0.01
O=[N+]([O-])c1ccc(OP(=O)(O)Oc2ccc([N+](=O)[O-])cc2)cc1 [BNPP, bis-4-nitrophenyl phosphate, reference compound]	–	–	–	–	–	–	–	–	–	92.1 ± 1.8 ^3%	–	–	–	–	–
Cc1cc(C(C)(C)C)c(O)c(C(C)(C)C)c1 [BHT, butylated hydroxytoluene, reference compound]	6.89 ± 0.26	72.0 ± 2.6	1.76 ± 0.07	22.4 ± 1.4	0.98 ± 0.03	–	–	–	–	–	–	–	–	–	–
CC(C)(C)c1cc(C=NCCNc2c3c(nc4ccccc24)CCCC3)cc(C(C)(C)C)c1O [Compound 7b, 2,6-Di-tert-butyl-4-{[2-(1,2,3,4-tetrahydro-acridin-9-ylamino)-ethylimino]-methyl}-phenol]	7.21 ± 0.62	95.0 ± 0.2	0.58 ± 0.03	17.1 ± 1.4	1.13 ± 0.05	–	3.7	–	18.2 ± 1.6	28.6 ± 1.6%	–	–	–	1.61 ± 0.04	5.98 ± 0.13
